Data: ChEMBL document CHEMBL1629665, “Contribution of vraSR and graSR point mutations to vancomycin resistance in vancomycin-intermediate Staphylococcus aureus” (2009)
≈ marks a conversion by molar mass, not a printed value. Where a SMILES comes first, the peptide text is derived from it. Bridges are numbered along the chain shown (N, C = ends). [ ]: non-standard residue; d: D form. The star is where a group is joined. Ileψ(thiazoline)Cys = CC[C@H](C)[C@H](N)C1=N[C@H](C(=O)*)CS1; dOrn = NCCC[C@@H](N)C(=O)O

Assays:
Format in all cases: functional
Staphylococcus aureus [1] = test: Antibacterial activity against vancomycin-intermediate Staphylococcus aureus Mu50 after 24 hrs by Etest; details: Mu50, 24 h
Staphylococcus aureus [2] = test: Antibacterial activity against vancomycin-susceptible Staphylococcus aureus Mu50omega after 24 hrs by Etest
Staphylococcus aureus [3] = test: Antibacterial activity against vancomycin-susceptible Staphylococcus aureus Mu50omega expressing vraSn mutant gene after 24 hrs by Etest
Staphylococcus aureus [4] = test: Antibacterial activity against vancomycin-susceptible Staphylococcus aureus Mu50omega expressing vraSm mutant gene after 24 hrs by Etest
Staphylococcus aureus [5] = test: Antibacterial activity against vancomycin-susceptible Staphylococcus aureus Mu50omega expressing vraSm, graRm mutant gene after 24 hrs by Etest
Staphylococcus aureus [6] = test: Antibacterial activity against vancomycin-intermediate Staphylococcus aureus Mu50 after 48 hrs by Etest; details: Mu50, 48 h
Staphylococcus aureus [7] = test: Antibacterial activity against vancomycin-susceptible Staphylococcus aureus Mu50omega after 48 hrs by Etest
Staphylococcus aureus [8] = test: Antibacterial activity against vancomycin-susceptible Staphylococcus aureus Mu50omega expressing vraSn mutant gene after 48 hrs by Etest
Staphylococcus aureus [9] = test: Antibacterial activity against vancomycin-susceptible Staphylococcus aureus Mu50omega expressing vraSm mutant gene after 48 hrs by Etest
Staphylococcus aureus [10] = test: Antibacterial activity against vancomycin-susceptible Staphylococcus aureus Mu50omega expressing vraSm, graRm mutant gene after 48 hrs by Etest
Staphylococcus aureus [11] = test: Antibacterial activity against vancomycin-intermediate Staphylococcus aureus Mu50 after 24 hrs by Etest in presence of Sulbactam; details: Mu50, 24 h
Staphylococcus aureus [12] = test: Antibacterial activity against vancomycin-susceptible Staphylococcus aureus Mu50omega after 24 hrs by Etest in presence of Sulbactam
Staphylococcus aureus [13] = test: Antibacterial activity against vancomycin-susceptible Staphylococcus aureus Mu50omega expressing vraSn mutant gene after 24 hrs by Etest in presence of Sulbactam
Staphylococcus aureus [14] = test: Antibacterial activity against vancomycin-susceptible Staphylococcus aureus Mu50omega expressing vraSm mutant gene after 24 hrs by Etest in presence of Sulbactam
Staphylococcus aureus [15] = test: Antibacterial activity against vancomycin-susceptible Staphylococcus aureus Mu50omega expressing vraSm, graRm mutant gene after 24 hrs by Etest in presence of Sulbactam
Staphylococcus aureus [16] = test: Antibacterial activity against vancomycin-intermediate Staphylococcus aureus Mu50 after 48 hrs by Etest in presence of Sulbactam; details: Mu50, 48 h
Staphylococcus aureus [17] = test: Antibacterial activity against vancomycin-susceptible Staphylococcus aureus Mu50omega after 48 hrs by Etest in presence of Sulbactam
Staphylococcus aureus [18] = test: Antibacterial activity against vancomycin-susceptible Staphylococcus aureus Mu50omega expressing vraSn mutant gene after 48 hrs by Etest in presence of Sulbactam
Staphylococcus aureus [19] = test: Antibacterial activity against vancomycin-susceptible Staphylococcus aureus Mu50omega expressing vraSm mutant gene after 48 hrs by Etest in presence of Sulbactam
Staphylococcus aureus [20] = test: Antibacterial activity against vancomycin-susceptible Staphylococcus aureus Mu50omega expressing vraSm, graRm mutant gene after 48 hrs by Etest in presence of Sulbactam

Compound	MIC (Staphylococcus aureus [1]) [mg/L]	MIC (Staphylococcus aureus [2]) [mg/L]	MIC (Staphylococcus aureus [3]) [mg/L]	MIC (Staphylococcus aureus [4]) [mg/L]	MIC (Staphylococcus aureus [5]) [mg/L]	MIC (Staphylococcus aureus [6]) [mg/L]	MIC (Staphylococcus aureus [7]) [mg/L]	MIC (Staphylococcus aureus [8]) [mg/L]	MIC (Staphylococcus aureus [9]) [mg/L]	MIC (Staphylococcus aureus [10]) [mg/L]	MIC (Staphylococcus aureus [11]) [mg/L]	MIC (Staphylococcus aureus [12]) [mg/L]	MIC (Staphylococcus aureus [13]) [mg/L]	MIC (Staphylococcus aureus [14]) [mg/L]	MIC (Staphylococcus aureus [15]) [mg/L]	MIC (Staphylococcus aureus [16]) [mg/L]	MIC (Staphylococcus aureus [17]) [mg/L]	MIC (Staphylococcus aureus [18]) [mg/L]	MIC (Staphylococcus aureus [19]) [mg/L]	MIC (Staphylococcus aureus [20]) [mg/L]
CCCCCCCCCC(=O)N[C@@H](Cc1c[nH]c2ccccc12)C(=O)N[C@H](CC(N)=O)C(=O)N[C@@H](CC(=O)O)C(=O)N[C@@H]1C(=O)NCC(=O)N[C@@H](CCCN)C(=O)N[C@@H](CC(=O)O)C(=O)N[C@H](C)C(=O)N[C@@H](CC(=O)O)C(=O)NCC(=O)N[C@H](CO)C(=O)N[C@@H]([C@H](C)CC(=O)O)C(=O)N[C@@H](CC(=O)c2ccccc2N)C(=O)O[C@@H]1C	2 (≈ 1.23 µM)	1 (≈ 0.617 µM)	1.5 (≈ 0.926 µM)	1.5 (≈ 0.926 µM)	2 (≈ 1.23 µM)	2 (≈ 1.23 µM)	1 (≈ 0.617 µM)	1.5 (≈ 0.926 µM)	1.5 (≈ 0.926 µM)	2 (≈ 1.23 µM)										
CC1(C)S[C@@H]2[C@H](NC(=O)[C@H](N)c3ccccc3)C(=O)N2[C@H]1C(=O)O [AMPICILLIN]	8 (≈ 22.9 µM)	1 (≈ 2.86 µM)	12 (≈ 34.3 µM)	12 (≈ 34.3 µM)	12 (≈ 34.3 µM)	8 (≈ 22.9 µM)	1 (≈ 2.86 µM)	12 (≈ 34.3 µM)	12 (≈ 34.3 µM)	12 (≈ 34.3 µM)	48	2	48	64	64	48	2	48	64	64
CC[C@H]1OC(=O)[C@H](C)[C@@H](O[C@H]2C[C@@](C)(OC)[C@@H](O)[C@H](C)O2)[C@H](C)[C@@H](O[C@@H]2O[C@H](C)C[C@H](N(C)C)[C@H]2O)[C@](C)(O)C[C@@H](C)CN(C)[C@H](C)[C@@H](O)[C@]1(C)O [AZITHROMYCIN]	> 256	> 256				> 256	> 256													
CC[C@H](C)[C@H](N)C1=N[C@H](C(=O)N[C@@H](CC(C)C)C(=O)N[C@H](CCC(=O)O)C(=O)N[C@H](C(=O)N[C@H]2CCCCNC(=O)[C@H](CC(N)=O)NC(=O)[C@@H](CC(=O)O)NC(=O)[C@H](Cc3cnc[nH]3)NC(=O)[C@@H](Cc3ccccc3)NC(=O)[C@H]([C@@H](C)CC)NC(=O)[C@@H](CCCN)NC2=O)[C@@H](C)CC)CS1 [BACITRACIN] ({Ileψ(thiazoline)Cys}-L[dE]IK[dOrn]I[dF]H[dD]N; lactam 4-C)	> 256	12 (≈ 8.43 µM)	128 (≈ 90 µM)	256 (≈ 180 µM)	256 (≈ 180 µM)	> 256	24 (≈ 16.9 µM)	256 (≈ 180 µM)	> 256	> 256										
CO[C@@]1(NC(=O)Cc2cccs2)C(=O)N2C(C(=O)O)=C(COC(N)=O)CS[C@@H]21 [CEFOXITIN]	> 256	32 (≈ 74.9 µM)	> 256	> 256	> 256	> 256	32 (≈ 74.9 µM)	> 256	> 256	> 256										
CO/N=C(\C(=O)N[C@@H]1C(=O)N2C(C(=O)O)=CCS[C@H]12)c1csc(N)n1 [CEFTIZOXIME]	> 256	0.38 (≈ 0.991 µM)	> 256	> 256	> 256	> 256	0.5 (≈ 1.3 µM)	> 256	> 256	> 256										
CO/N=C(\C(=O)N[C@@H]1C(=O)N2C(C(=O)O)=C(CSc3nc(=O)c(O)nn3C)CS[C@H]12)c1csc(N)n1 [CEFTRIAXONE]	> 256	3 (≈ 5.41 µM)	> 0.256	> 256	> 256	> 256	> 256													
CC(=O)OCC1=C(C(=O)O)N2C(=O)[C@@H](NC(=O)Cc3cccs3)[C@H]2SC1 [CEPHALOTHIN]	128 (≈ 323 µM)	0.25 (≈ 0.631 µM)	> 256	> 256	> 256	128 (≈ 323 µM)	0.38 (≈ 0.959 µM)	> 256	> 256	> 256										
O=C(O)c1cn(C2CC2)c2cc(N3CCNCC3)c(F)cc2c1=O [CIPROFLOXACIN]	> 32	> 32				> 32	> 32													
CC[C@H]1OC(=O)[C@H](C)[C@@H](O[C@H]2C[C@@](C)(OC)[C@@H](O)[C@H](C)O2)[C@H](C)[C@@H](O[C@@H]2O[C@H](C)C[C@H](N(C)C)[C@H]2O)[C@](C)(OC)C[C@@H](C)C(=O)[C@H](C)[C@@H](O)[C@]1(C)O [CLARITHROMYCIN]	> 256	> 256				> 256	> 256													
CCC[C@@H]1C[C@@H](C(=O)N[C@@H]([C@H]2O[C@H](SC)[C@H](O)[C@@H](O)[C@H]2O)[C@H](C)Cl)N(C)C1 [CLINDAMYCIN]	> 256	> 256				> 256	> 256													
